Converted amounts (≈) assume the structure as drawn. “And” between values parts separate entries of the source, which are not always exact repeats. Equal entries are not always repeated. Where two headings read alike, the source gives them in different places.
What was measured:
[1] = Ionization constants by potentiometric titration; format: physicochemical; conditions: basic pKa (B), mean ± SD, n = 3 titrations
Protocol: The autotitrator was controlled by Tiamo software (Version 1.3). pH measurements were conducted using a Metrohm LL Micro glass electrode which was calibrated on the day of use with calibration standards at pH 2, 4, 7 and 10. All reagents were standardized (directly or indirectly) against potassium hydrogen phthalate (Sigma-Aldrich, A.C.S. Acidimetric Standard). Titrant solutions were protected from carbon dioxide absorption by flushing with nitrogen before sealing or by the incorporation of a drying tube filled with self-indicating soda lime into the titration reaction vessel set-up.
Aliquots were introduced directly into the titration vessel and diluted 1:10 with water (typical final compound concentration of 0.5 mM).

[2] = Plasma protein binding via ultracentrifugation (UC); format: in vitro ADME, human; conditions: human, neat pooled plasma, pH 7.4; ultracentrifugation, neat plasma; read-out: Fraction unbound, human plasma
Protocol: (§1) Pooled human plasma (n = 3–4 donors) was obtained by centrifugation of blood (collected by the Australian Red Cross Blood Service, Melbourne, Australia or the Volunteer Blood Donor Registry, Clinical Translation Centre, Walter & Eliza Hall Institute of Medical Research, Parkville, Australia), or sourcing pooled plasma directly from commercial sources (Innovative Research Inc, MI) and stored frozen at − 80 °C.
(§2) An ultracentrifugation method adapted from a previous publication was initially used to assess plasma protein binding and binding in the other media. […] Additional ultracentrifuge tubes containing spiked matrix were maintained at 37 °C, 5% or 10% CO2 or normal atmosphere conditions, with aliquots being taken within 0.5 h of the start and at the end of ultracentrifugation to serve as controls for the assessment of stability and to obtain a measure of the total concentration (Ctotal). Following ultracentrifugation, the pH was checked and an aliquot of protein-free supernate was taken from each ultracentrifuge tube for determination of the unbound concentration (Cunbound).
(§3) Total matrix and protein free samples were analysed using a matrix matching approach whereby each sample was mixed in a 1:1 ratio with the opposite blank medium (i.e. blank total matrix or blank protein free buffer). For example, plasma samples were mixed with blank pH 7.4 buffer whereas plasma supernatant samples were mixed with blank plasma. Each of the sample sets were then assayed against a common calibration curve prepared in a 1:1 mixture of total matrix and protein free pH 7.4 buffer. […] The standard deviation for fu was calculated using the propagation of errors approach as described previously. The potential for compound degradation was assessed by comparing the average value for Ctotal at the start and end of the experiment.

[3] = target: T1, Albumax medium (lipid rich bovine serum albumin) (Bos taurus, UniProt P02769); experiment: Binding in Albumax medium via ultracentrifugation; format: in vitro ADME; conditions: bovine, Albumax medium, pH 7.4
T1 construct: purchased Gibco, Thermo Fisher Scientific
Protocol: as §2, §3

human liver microsomes [4] = experiment: in vitro; conditions: human, 1 µM, pH 7.4
Protocol: (§4) The metabolic stability assay was adapted from a previously published method. […] Reactions were quenched at 2, 5, 15, 30 and 60 min by the addition of acetonitrile containing 150 ng/mL diazepam as internal standard. Control samples (containing no cofactor) were included (quenched at 2, 30 and 60 min) to monitor degradation in the absence of cofactor. Concentrations were determined by LC–MS (Additional file 1: Table S2) by comparison to the response for a single point calibration standard prepared in quenched microsomal matrix.
(§5) Test compound concentration versus time data were fit using an exponential decay function to determine the first-order rate constant for substrate depletion. Where deviation from first-order kinetics was evident, only the initial linear portion of the logarithmic profile was utilized to determine the initial degradation rate constant (k, min^−1). Each substrate depletion rate constant was then used to calculate the in vitro intrinsic clearance value (CLint, in vitro, µL/min/mg protein) using Eq.
(§6) Unbound in vitro CLint values were obtained by dividing the measured CLint by the measured fu in microsomes.

in vitro = conditions: human, microsomes
Protocol: as §4, §5, §6

Caco-2 cell monolayers [5] = conditions: cited from earlier work
CYP3A4 = CYP3A4 (Homo sapiens, UniProt P08684); experiment: Cytochrome P450 inhibition in human liver microsomes; conditions: highest concentration tested 20 µM
Protocol: The CYP inhibition assay was based on a previous publication with minor modifications. The method uses human liver microsomes and a substrate-specific interaction approach which relies on the formation of a metabolite that is mediated by a specific CYP isoform. The specific CYP-mediated metabolic pathways, substrates, substrate Km values, positive control inhibitors and specific incubation conditions are shown in Additional file 1: Table S4. […] Samples were quenched by the addition of ice-cold acetonitrile containing diazepam as the analytical internal standard. Concentrations of the substrate-specific metabolites in quenched samples were determined by LC–MS (Additional file 1: Table S5) relative to calibration standards prepared in quenched microsomal matrix.
The inhibitory effect of each test compound and positive control inhibitor was based on the reduction in the formation of the specific CYP-mediated metabolite (represented as percent inhibition of enzyme activity) relative to metabolite formation in the absence of inhibitor (i.e. control for maximal enzyme activity). […] The Km was determined under the same incubation conditions by measuring the rate of metabolite formation (pmol/min/mg protein) as a function of substrate concentration (Additional file 1: Table S4).

human plasma = conditions: methods UF, ED, EP or not described per compound, ref [6]–[22] of Additional file 1; cited from earlier work
[6] = Binding to human liver microsomes via ultracentrifugation; format: in vitro ADME; conditions: human, liver microsomes, pH 7.4, 0.4 mg/mL protein, read-out: Fraction unbound, HLM
Protocol: A suspension of human liver microsomes (HLM, XenoTech LLC, Lenexa, KS, USA) was prepared in 0.1 M phosphate buffer (pH 7.4) at a protein concentration of 0.4 mg/mL immediately prior to the experiment.
as §2, §3

[7] = Plasma protein binding via rapid equilibrium dialysis (RED), 10% plasma; format: in vitro ADME, human; conditions: human, 10% pooled plasma (diluted 1:10), pH 7.4, RED, 10% plasma corrected for dilution, 6 h dialysis
Protocol: as §1
Plasma was diluted 1:10 with pH 7.4 phosphate buffer (prepared by mixing 0.1 M sodium dihydrogen phosphate and 0.1 M disodium hydrogen phosphate (both containing 0.04 M NaCl) to pH 7.4) and spiked with compound to achieve a total measured concentration of ~ 1000–3000 ng/mL. Diluted plasma was vortex mixed briefly and aliquots (n = 3–4) were transferred to RED (Thermo Fisher Scientific, Waltham, MA) units that were placed at 37 °C under ambient atmosphere on a plate shaker. […] At the end of the dialysis period, samples were removed from both the donor and dialysate chambers of the RED units. […] Fraction unbound values were calculated for each individual RED unit and the mean and SD calculated for n = 3–4 replicates.
Briefly, the RED device was exposed for two 30 min periods and one overnight period to fresh solutions of compound prepared in pH 7.4 buffer at approximately 10% of the total dialysis concentration. Following the preincubations, solutions were removed from the RED device and discarded. […] Samples were removed and analysed as described above.
For binding assessments using 10% plasma, the unbound fraction (fu) in neat plasma was calculated using the average values for Ctotal and Cunbound and Eq.

[8] = Octanol/pH 7.4 buffer partition coefficient, shake flask; conditions: for logD: pH 7.4
Protocol: Partition coefficients between octanol and pH 7.4 buffer were measured using a shake flask method. A stock solution of test compound in octanol was prepared at a concentration between 3 and 30 mg/mL based on the expected partition coefficient value. This stock solution was then diluted 3- and 10-fold with octanol and used to prepare the octanol phase for the partitioning experiments. Two different dilutions were used to confirm that there were no saturation effects. Phosphate buffered saline was prepared by combining 67 mM disodium hydrogen orthophosphate and sodium dihydrogen orthophosphate (both prepared in 43 mM NaCl) to a final pH of 7.4.
Partitioning experiments were conducted by mixing equal volumes of the octanol (containing test compound) and aqueous phases and placing on a vibrating plate mixer in an incubator at 37 °C. […] An aliquot of the aqueous phase was carefully removed and centrifuged again to ensure no contamination from the octanol phase before sampling in duplicate and diluting with aqueous methanol for analysis. Diluted samples were analysed by LC–MS along with calibration standards (Additional file 1: Table S2) and partition coefficients were calculated from the ratio of the mean octanol to buffer concentration after accounting for the dilution factors. The partitioning results for the two time points were used to confirm that the partitioning experiment had reached equilibrium.

Caco-2 cell monolayers [9] = experiment: Bidirectional permeability across Caco-2 cell monolayers; conditions: matrix: human plasma, corrected for fu
Protocol: (§7) Bidirectional permeability was assessed across Caco-2 cell monolayers as described previously. Briefly, permeability experiments were performed using either aqueous transport buffer (pH 7.4 Hanks balanced salt solution containing 20 mM HEPES) or human plasma (Australian Red Cross Blood Service) in both the apical and basolateral chambers. […] The final DMSO concentration in the donor solution was 0.1% v/v.
(§8) Samples from the donor chamber were taken at the start and end of the experiment. […] Donor and acceptor samples were stored frozen at − 80 °C until analysis by LC–MS (Additional file 1: Table S2) with sample preparation as described previously. The mass balance and apparent permeability coefficient (Papp) were calculated as previously described.
(§9) Where human plasma was used as the transport medium, Papp values were calculated as shown above, with correction for the fraction unbound (fu) in the donor solution Cdonorinitial×fu with fu determined at a similar concentration to that used in the transport experiment. The apparent flux of lucifer yellow was based on an endpoint measurement assuming no lag time. The efflux ratio was calculated as the ratio of the mean B–A to A–B Papp values.

[10] = Solubility in biorelevant media
Protocol: Solubility of each active pharmaceutical ingredient was evaluated at 37 °C in pH 7.4 phosphate buffered saline (prepared as described for the partitioning experiments), fasted (FaSSIF-V2) and fed (FeSSIF-V2) state simulated intestinal fluids and fasted state simulated gastric fluid (FaSSGF) as described by Jantratid et al.. […] Samples were vortexed and placed in a 37 °C incubator on an orbital mixer (IKA® VXR basic Vibrax® orbital mixer) set at 600 rpm. Sampling times were 1 h for FaSSGF or 5–6 h for FaSSIF-V2, FeSSIF-V2, and PBS. These times were used to reflect the maximal likely residence times within the stomach and small intestine, respectively. Sampling was carried out by centrifuging each sample at 10,000 rpm for 3 min, transferring 300 µL aliquots into fresh Eppendorf tubes and centrifuging these tubes again at 10,000 rpm for 3 min. Triplicate aliquots of the supernatant were then removed and diluted 1:2 in 50% aqueous methanol and then again in 50% aqueous acetonitrile to be within the analytical concentration range. Samples were analysed by LC–MS along with calibration standards (Additional file 1: Table S2).

physchem = conditions: for An (absorption number): Peff × tres/R, minimum 1; for Predicted human Peff: from Caco-2 Papp via calibration plot
Excerpt: Predicted Peff values were obtained from a calibration plot of literature Peff values vs measured Caco-2 Papp using either buffer or plasma as the transport medium (see Results section).

[11] = Bidirectional permeability across Caco-2 cell monolayers; conditions: human
Protocol: as §7, §8, §9

[12] = human; cited from earlier work
human liver microsomes [13] = conditions: microsomal protein 0.5 mg/mL; ref [23]–[28] of Additional file 1; cited from earlier work
[14] = matrix: human plasma, corrected for fu

CYP3A4, sequence (P08684 whole entry, canonical isoform): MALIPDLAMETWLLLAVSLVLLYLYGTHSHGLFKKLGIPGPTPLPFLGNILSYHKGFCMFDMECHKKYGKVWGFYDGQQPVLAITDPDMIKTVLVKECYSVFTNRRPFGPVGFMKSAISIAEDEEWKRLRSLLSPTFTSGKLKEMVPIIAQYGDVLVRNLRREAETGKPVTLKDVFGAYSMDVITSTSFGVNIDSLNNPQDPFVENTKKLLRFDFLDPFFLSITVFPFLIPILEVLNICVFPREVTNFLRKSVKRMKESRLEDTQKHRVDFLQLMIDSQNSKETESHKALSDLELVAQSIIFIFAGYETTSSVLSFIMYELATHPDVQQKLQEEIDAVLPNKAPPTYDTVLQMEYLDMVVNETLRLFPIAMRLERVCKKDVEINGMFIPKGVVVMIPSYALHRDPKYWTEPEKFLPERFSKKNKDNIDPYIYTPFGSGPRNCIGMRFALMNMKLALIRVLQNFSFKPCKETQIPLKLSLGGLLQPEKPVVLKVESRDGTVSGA
T1 sequence (P02769 25-607): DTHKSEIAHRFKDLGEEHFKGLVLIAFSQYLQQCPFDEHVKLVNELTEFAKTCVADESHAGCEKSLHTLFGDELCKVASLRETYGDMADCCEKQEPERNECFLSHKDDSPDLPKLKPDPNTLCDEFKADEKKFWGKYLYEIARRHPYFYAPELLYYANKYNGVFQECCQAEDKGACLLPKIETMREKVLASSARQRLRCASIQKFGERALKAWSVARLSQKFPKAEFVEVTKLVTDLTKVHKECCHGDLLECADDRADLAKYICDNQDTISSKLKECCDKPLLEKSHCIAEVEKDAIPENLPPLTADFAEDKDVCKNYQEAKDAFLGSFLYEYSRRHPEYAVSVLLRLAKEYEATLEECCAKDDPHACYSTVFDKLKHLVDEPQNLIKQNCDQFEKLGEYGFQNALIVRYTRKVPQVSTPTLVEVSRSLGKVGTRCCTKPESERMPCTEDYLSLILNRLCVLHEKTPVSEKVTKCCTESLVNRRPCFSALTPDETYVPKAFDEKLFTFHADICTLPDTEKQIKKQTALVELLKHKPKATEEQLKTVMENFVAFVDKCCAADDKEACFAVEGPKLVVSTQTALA

CCN(CC)Cc1cc(Nc2ccnc3cc(Cl)ccc23)ccc1O [Amodiaquine]
pKa ([1]; aqueous solution (DMSO stock diluted 1:10 with water), read-out: Measured pKa): 7 ± 0.02 | fraction unbound at […] [2]: 0.089 ± 0.008 | fraction unbound at […], 500 ng/mL [3]: 0.67 ± 0.033 | Unbound CLint (human liver microsomes [4]): 339 µL/min/mg | microsomal CLint at 1 µM (in vitro; pH 7.4, HLM CLint): 308 µL/min/mg | Literature ER (Caco-2 cell monolayers [5]; Caco-2, ref [33], [35] of Additional file 1): 1.3 | Literature Papp (Caco-2 cell monolayers [5]; Caco-2 A-B, ref [33]–[35] of Additional file 1): 16.0 ± 1.1 10-6 cm/sec | A–B Papp (Caco-2 cell monolayers [5]; [14]): 90 ± 8.3 10^−6 cm/s | B–A Papp (Caco-2 cell monolayers [5]; [14]): 63 ± 9.6 10^−6 cm/s | IC50 (CYP3A4; CYP3A4 (midaz) IC50, human liver microsomes, CYP3A4 (midaz)): > 20 µM | IC50 (CYP3A4; CYP3A4 (test) IC50, human liver microsomes, CYP3A4 (test)): > 20 µM | Literature fu (human plasma): < 0.1 | fraction unbound at […] [6]: 0.91 ± 0.094 | fraction unbound at 6 h [7]: 0.086 | logD ([8]; octanol/pH 7.4 buffer): 2.95

CC1(C)CC(O)(COc2ccc(C3CCC4(CC3)OOC3(O4)C4CC5CC(C4)CC3C5)cc2)CC(C)(C)N1 (stereo not drawn) [MMV052]
A–B Papp (Caco-2 cell monolayers [9]): > 300 10^−6 cm/s | B–A Papp (Caco-2 cell monolayers [9]): > 300 10^−6 cm/s | Measured pKa [1]: 8.3 ± 0.06 (B) | Solubility FaSSGF (1 h) ([10]; 37 °C): 13.0 µg/mL and 24.7 µM | Solubility FaSSIF-V2 (5–6 h) ([10]; 37 °C): 1140 µg/mL and 2170 µM | Solubility FeSSIF-V2 (5–6 h) ([10]; 37 °C): > 2000 µg/mL and > 3800 µM | Solubility PBS7.4 (5–6 h) ([10]; 37 °C): 49.6 µg/mL and 94.3 µM | SLAD (physchem): 7580 mg | An (absorption number) (physchem): 13 | Ssi (estimated solubility in the small intestine) (physchem; based on measured FaSSIF solubility): 1140 µg/mL | Predicted human Peff (physchem): 11 10^−4 cm/s | Measured Log D7.4 ([8]; octanol/pH 7.4 buffer, shake flask, 37 °C): 5.40

c1cc([C@H]2CC[C@]3(CC2)OO[C@]2(O3)C3CC4CC(C3)CC2C4)ccc1OCCN1CCOCC1 [OZ439]
Papp B→A ([11]; Caco-2): > 300 ×10⁻⁶ cm/s | Papp A→B ([11]; Caco-2, A–B Papp, matrix: human plasma, corrected for fu): > 300 ×10⁻⁶ cm/s | FaSSGF solubility ([10]; FaSSGF): 79 µg/mL | solubility at 1 h ([10]; FaSSGF, 37 °C, fassgf or other biorelevant, thermodynamic from solid): 79 µg/mL and 168 µM | FaSSIF solubility ([10]; FaSSIF): 40.6 µg/mL | solubility ([10]; FaSSIF-V2, 37 °C, fassif, thermodynamic from solid): 40.6 µg/mL and 87 µM | solubility ([10]; FeSSIF-V2, 37 °C, fessif, thermodynamic from solid): 526 µg/mL and 1120 µM | solubility ([10]; phosphate buffered saline pH 7.4, 37 °C, pH 7.4, aqueous buffer, thermodynamic from solid): 0.085 µg/mL and 0.181 µM | Food effect [12]: yes | V/F [12]: 1570 L | solubility (physchem; FaSSIF): 40.6 µg/mL (≈ 86.5 µM) | An (absorption number) (physchem): 13 | SLAD (physchem; Ssi × V (500 mL) × Mp): 270 mg | Predicted human Peff (physchem): 11 10^−4 cm/s | logD ([8]; octanol/pH 7.4 phosphate buffered saline): > 5

Cc1ncc2n1-c1ccc(Cl)cc1C(c1ccccc1F)=NC2 [midazolam]
microsomal CLint at 1 µM (in vitro; pH 7.4, Mean CLint, control compounds, mean (S.D.)): 272 µL/min/mg | microsomal CLint at 1 µM (in vitro; pH 7.4, Range HLM CLint, control compounds, 6–21 independent measurements, 0.4 mg/mL): 240 to 300 µL/min/mg | Literature CLint (human liver microsomes [13]): 353 µL/min/mg and 178 µL/min/mg and 287 µL/min/mg
